The record followed here is patent publication US6329400A, “Formamide compounds as therapeutic agents” (Glaxo Wellcome Inc., priority 1998, dated 2001).

One assay deals with T1, TNFα converting enzyme (Homo sapiens, UniProt P78536).
T1 construct: Membrane preparation from MonoMac 6 cells; endogenous in cells; host or cells: MonoMac 6 cells (membrane preparation, subfractionated extract)
As to the kind of experiment: TNFα Converting Enzyme Inhibition Protocol. Particulars: cell-free, MonoMac 6 membrane preparation; IC50 equivalent to Ki at [S]<<Km. Format: biochemical. As for the experimental part:
B. TNFα Converting Enzyme Inhibition Protocol
The reaction is quenched by addition of streptavidin SPA beads (Amersham RPNQ0006), with excess binding capacity relative to substrate, suspended in 250 mM EDTA, pH 8.0. Binding is complete within 15 minutes and plates are counted in a Wallac 1450 Microbeta liquid scintillation counter. Percent inhibition is calculated at each inhibitor concentration and the data were plotted using standard curve fitting programs. IC50 values were determined from these curves.

Assay [1] deals with T2, 19 kD truncated collagenase-1 (MMP-1) (Homo sapiens, UniProt P03956).
T2 construct: 19 kD truncated collagenase-1 (MMP-1)
T2 sequence (P03956 101-269 limits assumed): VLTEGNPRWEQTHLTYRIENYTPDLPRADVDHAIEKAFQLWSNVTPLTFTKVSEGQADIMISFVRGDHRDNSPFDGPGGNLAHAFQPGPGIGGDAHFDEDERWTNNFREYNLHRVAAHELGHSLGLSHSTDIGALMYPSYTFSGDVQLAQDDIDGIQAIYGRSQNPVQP
The experiment in a line: Matrix Metalloprotease Inhibition Protocol, collagenase-1. The class given is biochemical. The note with it: fluorogenic substrate, pH 7.6; IC50 equivalent to Ki at [S]<<Km. The procedure: (§1) A. Matrix Metalloprotease Inhibition Protocol
(§2) Assays are conducted in a total volume of 0.180 mL assay buffer (200 mM NaCl, 50 mM Tris, 5 mM CaCl2, 10 μM ZnSO4, 0.005% Brij 35, pH 7.6) in each well of a black 96 well microtiter plate. 19 kD collagenase-1, 20 kD collagenase-3, stromelysin-1,and 50 kD gelatinase B concentrations are adjusted to 500 pM, 30 pM, 5 nM, and 100 pM, respectively. A dose response is generated using an eleven-point, 3-fold serial dilution with initial starting test compound concentrations of 100, 10, or 1 μM. Inhibitor and enzyme reactions are incubated for 30 minutes at ambient temperature and then initiated with 10 μM fluorogenic substrate (above). The product formation is measured at Excitation343 /Emission450 nm after 45-180 minutes using a Fluostar SLT fluorescence analyzer. Percent inhibition is calculated at each inhibitor concentration and the data were plotted using standard curve fitting programs. IC50 values were determined from these curves. Assays were run at low substrate concentration ([S]<<Km) such that the calculated IC50 values are equivalent to Ki within experimental error.

The target of assay [2] is 20 kD truncated collagenase-3 (MMP-13). As to the kind of experiment: Matrix Metalloprotease Inhibition Protocol, collagenase-3. The note with it: fluorogenic substrate, pH 7.6; IC50 equivalent to Ki at [S]<<Km. The class given is biochemical. The procedure:
as §1
as §2, with “curves.” for “curves. Assays were run at low substrate concentration ([S]<<Km) such that the calculated IC50 values are equivalent to Ki within experimental error.”

Assay [3] addresses 50 kD truncated gelatinase B (MMP-9). As to the kind of experiment: Matrix Metalloprotease Inhibition Protocol, gelatinase B. Format: biochemical. The note with it: fluorogenic substrate, pH 7.6; IC50 equivalent to Ki at [S]<<Km. The procedure: as §1
as §2, with “curves.” for “curves. Assays were run at low substrate concentration ([S]<<Km) such that the calculated IC50 values are equivalent to Ki within experimental error.”

Another assay has as its target stromelysin-1 (MMP-3) (Homo sapiens, UniProt P08254). The experiment in a line: Matrix Metalloprotease Inhibition Protocol, stromelysin-1. Format: biochemical. The note with it: fluorogenic substrate, pH 7.6; IC50 equivalent to Ki at [S]<<Km. As for the experimental part:
as §1, §2

Assay [4] has as its system TNFα release from MonoMac 6 cells. The experiment in a line: Cell-Based TNFα Release Inhibition Protocol. Particulars: Homo sapiens, MONO-MAC-6; LPS/PMA-stimulated MonoMac 6 cells, 37° C., 2 hours. As for the experimental part:
C. Cell-Based TNFα Release Inhibition Protocol
This solution is then diluted 1:1000 (40 ng/mL and 120 ng/mL) for use later in the assay. Compounds (10 mM) are serially diluted 1:3 in DMSO. Compound dilutions (20 μL) are added to a sterile round bottom 96 well plate (20 μL:200 μL total volume=1:10 for final concentrations of 50 μM for test compounds). MonoMac 6 cell suspension (130 μL, 1.5×10^6 cells/mL) is then added to each well resulting in 2×10^5 cells/well. LPS/PMA (50 μL) solution is then added to each well to begin stimulation (final concentrations of 10 ng/mL and 30 ng/mL respectively). The plate is incubated at 37° C. for 2 hours then spun at 1,500 rpm for 3 minutes to pellet cells. The supernatant (120 μL/well) is removed to a new round bottom 96 well plate and diluted 1:10 in PBS. Then, 20 μL of the supernatant is transferred to a Cistron TNFα ELISA plate and processed according to the manufacturer's instructions to quantitate levels of TNFα. Percent inhibition of TNFα release is calculated at each inhibitor concentration and the data were plotted using standard curve fitting programs. IC50 values were determined from these curves.

The structures appear in SMILES notation. Bounds are passed on as bounds.

T1 sequence (P78536 215-824): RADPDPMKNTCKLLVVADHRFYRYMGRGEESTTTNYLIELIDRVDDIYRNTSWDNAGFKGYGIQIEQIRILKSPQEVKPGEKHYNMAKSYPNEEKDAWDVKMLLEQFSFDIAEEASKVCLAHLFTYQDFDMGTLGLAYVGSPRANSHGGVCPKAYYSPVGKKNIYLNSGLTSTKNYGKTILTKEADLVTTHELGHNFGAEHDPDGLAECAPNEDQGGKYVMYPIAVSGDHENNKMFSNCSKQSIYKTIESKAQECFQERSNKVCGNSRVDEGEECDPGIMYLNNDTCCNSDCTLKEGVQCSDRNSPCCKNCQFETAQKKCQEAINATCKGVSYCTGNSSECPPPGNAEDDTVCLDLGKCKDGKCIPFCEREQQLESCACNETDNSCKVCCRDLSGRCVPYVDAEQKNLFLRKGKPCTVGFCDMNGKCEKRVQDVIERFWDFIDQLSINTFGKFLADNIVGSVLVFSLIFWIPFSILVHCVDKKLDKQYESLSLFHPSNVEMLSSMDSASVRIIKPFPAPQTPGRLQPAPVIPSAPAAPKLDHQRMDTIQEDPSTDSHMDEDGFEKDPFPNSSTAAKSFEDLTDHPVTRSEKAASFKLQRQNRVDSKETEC
Sequence of stromelysin-1 (MMP-3) (P08254 100-477): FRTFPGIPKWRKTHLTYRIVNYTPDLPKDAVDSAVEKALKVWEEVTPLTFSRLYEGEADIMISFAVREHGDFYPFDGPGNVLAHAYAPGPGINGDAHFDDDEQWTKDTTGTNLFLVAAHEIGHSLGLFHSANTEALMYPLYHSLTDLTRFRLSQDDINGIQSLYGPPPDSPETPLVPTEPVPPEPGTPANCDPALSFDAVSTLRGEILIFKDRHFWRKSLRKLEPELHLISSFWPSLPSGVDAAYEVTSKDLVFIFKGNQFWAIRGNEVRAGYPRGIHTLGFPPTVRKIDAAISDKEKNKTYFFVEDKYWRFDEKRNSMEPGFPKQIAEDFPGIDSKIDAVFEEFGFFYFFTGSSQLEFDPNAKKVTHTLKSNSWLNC

Take `C[C@@H]([C@@H](CCCc1ccccc1)C(=O)N[C@H](C(=O)Nc1cccnc1)C(C)(C)C)N(O)C=O` [Example 1, (2R,3S)-3-(Formyl-hydroxyamino)-2-(3-phenyl-1-propyl)butanoic Acid [(1S)-2,2-Dimethyl-1-(pyridine-3-ylcarbamoyl)-1-propyl]amide]: the Ki was 500 to 1000 nM on TNFα converting enzyme; under 100 nM in assay [1]; under 100 nM in assay [2]; under 100 nM in assay [3]; under 100 nM at stromelysin-1 (MMP-3).
For the compound `C[C@@H]([C@@H](CC1CCC(c2ccccc2)CC1)C(=O)N[C@H](C(=O)Nc1nccs1)C(C)(C)C)N(O)C=O` (stereo partly drawn) [Example 2, (2R,3S)-3-(Formyl-hydroxyamino)-2-(4-phenylcyclohexylmethyl)butanoic Acid [(1S)-2,2-Dimethyl-1-(1,3-thiazol-2-ylcarbamoyl)-1-propyl]amide], the Ki was under 100 nM on TNFα converting enzyme; 500 to 1000 nM in assay [1]; under 100 nM in assay [2]; 100 to 500 nM in assay [3]; 100 to 500 nM at stromelysin-1 (MMP-3). In addition, in assay [4], the IC50 is over 1000 nM.
For `CCC[C@@H]([C@@H](CCCc1ccccc1)C(=O)N[C@@H](CCCCNC(=O)OCc1ccccc1)C(=O)Nc1nncs1)N(O)C=O` [Example 3, (2R,3S)-3-(Formyl-hydroxyamino)-2-(3-phenyl-1-propyl)hexanoic Acid [(1S)-5-Benzyloxycarbonylamino-1-(1,3,4-thiadiazol-2-yl-carbamoyl)-1-pentyl]amide], the Ki is under 100 nM on TNFα converting enzyme, over 1000 nM in assay [1] and under 100 nM on stromelysin-1 (MMP-3). For the same compound, the IC50 in assay [4] is 100 to 500 nM.
Regarding `CCC[C@@H]([C@@H](CCCc1ccoc1)C(=O)N[C@@H](CCCCNC(=O)OCc1ccccc1)C(=O)Nc1nccs1)N(O)C=O` [Example 4, (2R,3S)-3-(Formyl-hydroxyamino)-2-(3-(3-furyl)-1-propyl)hexanoic Acid [(1S)-5-Benzyloxycarbonylamino-1-(1,3-thiazol-2-ylcarbamoyl)-1-pentyl]amide], the Ki on TNFα converting enzyme was under 100 nM; in assay [1], over 1000 nM; in assay [2] it was under 100 nM; in assay [3], 100 to 500 nM; at stromelysin-1 (MMP-3) it was under 100 nM. The compound also came in with an IC50 in assay [4] of under 100 nM.
Take `CCC[C@@H]([C@@H](CCCc1ccoc1)C(=O)N[C@H](C(=O)Nc1nccs1)C(C)(C)C)N(O)C=O` [Example 5, (2R,3S)-3-(Formyl-hydroxyamino)-2-(3-(3-furyl)-1-propyl)hexanoic Acid [(1S)-2,2-Dimethyl-1-(1,3-thiazol-2-ylcarbamoyl)-1-propyl]amide]: the Ki is 500 to 1000 nM in assay [1], under 100 nM in assay [2], under 100 nM in assay [3] and under 100 nM on stromelysin-1 (MMP-3). The compound further displayed an IC50 in assay [4] of 100 to 500 nM.
`CCC[C@@H]([C@H](COCc1ccccc1)C(=O)N[C@@H](CCCCNC(=O)OCc1ccccc1)C(=O)Nc1nccs1)N(O)C=O` [Example 6, (2R,3S)-3-(Formyl-hydroxyamino)-2-(benzyloxymethyl)hexanoic Acid [(1S)-5-Benzyloxycarbonylamino-1-(1,3-thiazol-2-ylcarbamoyl)-1-pentyl]amide]: the Ki on TNFα converting enzyme was under 100 nM; in assay [1], over 1000 nM; in assay [2] it was 100 to 500 nM; in assay [3] it was over 1000 nM; on stromelysin-1 (MMP-3) it was 100 to 500 nM. Moreover, in assay [4], the IC50 was over 1000 nM.
Consider `CCC[C@@H]([C@@H](CC(C)Cc1ccccc1)C(=O)N[C@H](C(=O)Nc1nccs1)C(C)(C)SCCNC(=O)OCc1ccccc1)N(O)C=O` (stereo partly drawn) [Example 7, (2R,3S)-3-(Formyl-hydroxyamino)-2-(3-phenyl-2-methyl-1-propyl)hexanoic Acid [(1R)-2-Methyl-2-(2-benzyloxycarbonylamino-1-ethylsulfanyl)-1-(1,3-thiazol-2-ylcarbamoyl)-1-propyl]-amide], for which the Ki was 100 to 500 nM at TNFα converting enzyme; over 1000 nM in assay [1]; 500 to 1000 nM in assay [2]; over 1000 nM in assay [3]; over 1000 nM on stromelysin-1 (MMP-3). This compound yielded an IC50 in assay [4] of over 1000 nM.
For `CCC[C@@H]([C@@H](CC(C)Cc1ccccc1)C(=O)N[C@H](C(=O)Nc1nccs1)C(C)(C)C)N(O)C=O` (stereo partly drawn) [Example 8, (2R,3S)-3-(Formyl-hydroxyamino)-2-(3-phenyl-2-methyl-1-propyl)hexanoic Acid [(1S)-2,2-Dimethyl-1-(1,3-thiazol-2-ylcarbamoyl)-propyl]amide], the Ki is under 100 nM at TNFα converting enzyme; over 1000 nM in assay [1]; 100 to 500 nM in assay [2]; over 1000 nM in assay [3]; over 1000 nM on stromelysin-1 (MMP-3). In assay [4], this compound gave an IC50 of over 1000 nM.
As for `CCC[C@@H]([C@@H](CC(C)Cc1ccccc1)C(=O)N[C@@H](CCCCNC(=O)OCc1ccccc1)C(=O)Nc1nccs1)N(O)C=O` (stereo partly drawn) [Example 9, (2R,3S)-3-(Formyl-hydroxyamino)-2-(3-phenyl-2-methyl-1-propyl)hexanoic Acid [(1S)-5-Benzyloxycarbonylamino-1-(1,3-thiazol-2-ylcarbamoyl)-1-pentyl]amide], the Ki in assay [1] was over 1000 nM; in assay [2], 500 to 1000 nM; in assay [3] it was over 1000 nM; at stromelysin-1 (MMP-3), over 1000 nM. In assay [4], this compound returned an IC50 of 100 to 500 nM.
Turning to `C[C@@H]([C@@H](CCCc1ccc(Cl)cc1)C(=O)N[C@H](C(=O)Nc1cccnc1)C(C)(C)C)N(O)C=O` [Example 195, (2R,3S)-3-(Formyl-hydroxyamino)-2-(3-(4-chlorophenyl)-1-propyl)butanoic Acid [(1S)-2,2-Dimethyl-1-(pyridine-3-ylcarbamoyl)-1-propyl]amide], the Ki is over 1000 nM at TNFα converting enzyme; under 100 nM in assay [1]; under 100 nM in assay [2]; under 100 nM in assay [3]; under 100 nM on stromelysin-1 (MMP-3).

As a reminder, the Ki is a dissociation constant, usually derived from enzyme kinetics or from competition with a known ligand. As a reminder, the IC50 is the concentration at which inhibition is half-maximal. A high value points to a need for much substance.
